Results taken from ChEMBL document CHEMBL3526083, “Prediction of relative in vivo metabolite exposure from in vitro data using two model drugs: dextromethorphan and omeprazole” (Drug Metab Dispos, 2012).

Legend:
Type in all cases: ADME
Liver microsome [1] = experiment: Drug metabolism in human liver microsomes assessed as dextrophan-O-glucuronide formation measured as intrinsic clearance in presence of 2% BSA
[2] = target: T1, UDP-glucuronosyltransferase 1A7 (Homo sapiens, UniProt Q9HAW7); experiment: Drug metabolism assessed as recombinat UGT1A7 (unknown origin) -mediated dextrophan-O-glucuronide formation
T1 sequence (Q9HAW7 whole entry): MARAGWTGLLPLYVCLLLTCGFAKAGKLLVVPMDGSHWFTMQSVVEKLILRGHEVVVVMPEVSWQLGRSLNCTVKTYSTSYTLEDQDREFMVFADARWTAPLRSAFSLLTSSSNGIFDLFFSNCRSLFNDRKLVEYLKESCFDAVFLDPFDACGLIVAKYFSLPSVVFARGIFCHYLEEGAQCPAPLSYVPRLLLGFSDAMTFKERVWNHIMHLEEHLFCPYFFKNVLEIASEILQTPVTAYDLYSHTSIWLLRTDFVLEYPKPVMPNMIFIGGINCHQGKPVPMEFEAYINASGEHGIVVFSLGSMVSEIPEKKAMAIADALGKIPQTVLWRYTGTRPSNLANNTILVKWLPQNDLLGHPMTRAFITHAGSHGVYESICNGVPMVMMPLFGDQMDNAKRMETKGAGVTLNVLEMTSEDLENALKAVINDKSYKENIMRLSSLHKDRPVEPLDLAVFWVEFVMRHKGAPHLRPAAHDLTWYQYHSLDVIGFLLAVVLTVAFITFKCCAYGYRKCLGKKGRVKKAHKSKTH

Liver microsome [3] = experiment: Drug metabolism in human liver microsomes assessed as 3-hydroxymorphinan formation measured as microsomal fraction unbound
Liver microsome [4] = experiment: Drug metabolism in human liver microsomes assessed as dextrophan-O-glucuronide formation measured as microsomal fraction unbound
Liver microsome [5] = experiment: Drug metabolism in human liver microsomes assessed as 3-hydroxymorphinan formation measured as intrinsic clearance
Liver microsome [6] = experiment: Drug metabolism in human liver microsomes assessed as 3-hydroxymorphinan formation
Liver microsome [7] = experiment: Drug metabolism in human liver microsomes assessed as 3-hydroxymorphinan formation measured as intrinsic unbound clearance
Liver microsome [8] = experiment: Drug metabolism in human liver microsomes assessed as dextrophan-O-glucuronide formation measured as intrinsic clearance
Liver microsome [9] = experiment: Drug metabolism in human liver microsomes assessed as dextrophan-O-glucuronide formation measured as plasma fraction unbound in presence of 2% BSA
Liver microsome [10] = experiment: Drug metabolism in human liver microsomes assessed as dextrophan-O-glucuronide formation measured per mg of microsomal protein in presence of 2% BSA
Liver microsome [11] = experiment: Drug metabolism in human liver microsomes assessed as dextrophan-O-glucuronide formation measured as intrinsic unbound clearance in presence of 2% BSA
Liver microsome [12] = experiment: Drug metabolism in human liver microsomes assessed as dextrophan-O-glucuronide formation in presence of 2% BSA
[13] = target: T2, UDP-glucuronosyltransferase 1A8 (Homo sapiens, UniProt Q9HAW9); experiment: Drug metabolism assessed as recombinat UGT1A8 (unknown origin) -mediated dextrophan-O-glucuronide formation
T2 sequence (Q9HAW9 whole entry): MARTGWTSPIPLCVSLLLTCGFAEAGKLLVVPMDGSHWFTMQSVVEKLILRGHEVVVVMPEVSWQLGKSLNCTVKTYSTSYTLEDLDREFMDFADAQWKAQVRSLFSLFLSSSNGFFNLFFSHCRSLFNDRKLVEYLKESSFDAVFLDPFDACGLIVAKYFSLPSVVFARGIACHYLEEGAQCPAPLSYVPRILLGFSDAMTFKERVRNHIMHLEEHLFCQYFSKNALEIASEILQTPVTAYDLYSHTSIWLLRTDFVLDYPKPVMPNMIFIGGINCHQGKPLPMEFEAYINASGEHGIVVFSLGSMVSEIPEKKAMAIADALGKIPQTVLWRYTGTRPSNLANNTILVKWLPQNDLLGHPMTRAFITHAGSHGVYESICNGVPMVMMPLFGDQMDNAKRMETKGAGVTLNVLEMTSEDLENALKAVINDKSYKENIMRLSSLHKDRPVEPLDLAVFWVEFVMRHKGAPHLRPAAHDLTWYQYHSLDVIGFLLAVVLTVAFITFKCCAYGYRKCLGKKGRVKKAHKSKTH

**Q.** Which CLH (Liver microsome [1]) does the source give for `CN1CC[C@@]23CCCC[C@@H]2[C@@H]1Cc1ccc(O)cc13` [DEXTRORPHAN] here?
**A.** 11 µL/min/mg

**Q.** And the Drug metabolism [2]?
**A.** metabolite_not_detected

**Q.** What about the Fu (Liver microsome [3]) of the same molecule?
**A.** 1

**Q.** What about the Fu (Liver microsome [4]) of the same molecule?
**A.** 1

**Q.** And the CLH (Liver microsome [5])?
**A.** 0.88 µL/min/mg

**Q.** What about the Km (Liver microsome [6]) of the same molecule?
**A.** 910 µM

**Q.** And the CL free (Liver microsome [7])?
**A.** 0.95 µL/min/mg

**Q.** What about the CLH (Liver microsome [8]) of the same molecule?
**A.** 2.9 µL/min/mg

**Q.** What about the Fu (Liver microsome [9]) of the same molecule?
**A.** 0.55

**Q.** And the Vmax (Liver microsome [10])?
**A.** 2.3 nmol/min

**Q.** What about the CL free (Liver microsome [11]) of the same molecule?
**A.** 12 µL/min/mg

**Q.** And the Km (Liver microsome [12])?
**A.** 210 µM

**Q.** And the Drug metabolism [13]?
**A.** metabolite_not_detected
